Laboratory results as given in patent US20110319392A1, “Thiazole Sulfonamide And Oxazole Sulfonamide Kinase Inhibitors” (priority 2009, published 2011).
Counter-ions that a name gives are not always drawn.

Key:
HT-29 tumor cells = assay: Cell growth inhibition assay (CellTiter-Glo), HT-29; type: cell-based, Human; conditions: Homo sapiens
Method in brief: (§1)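 Cells seeded at 500/well (HN5 and HT-29 in high-glucose DMEM/10% FBS; A375P F11s in RPMI/10% FBS with pyruvate; SK-MEL-3 in McCoy's 5A/15% FBS), then exposed next day to 1:3 serial compound dilutions (0.2% DMSO) for 3 days at 37° C. CellTiter-Glo luminescence measured ATP; IC50 derived by 4-parameter fit.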

A375P F11s tumor cells = assay: Cell growth inhibition assay (CellTiter-Glo), A375P F11s; type: cell-based, Human; conditions: Homo sapiens
Method in brief: as §1

Colo205 tumor cells = assay: Cell growth inhibition assay (CellTiter-Glo), Colo205; type: cell-based, Human; conditions: Homo sapiens, COLO 205, 72 h; 3 days incubation
Method in brief: (§2)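 Readout was CellTiter-Glo luminescence (total ATP, surrogate for cell number) after 3-day exposure at 37° C, 5% CO2 to 1:3 serial compound dilutions in 0.2% final DMSO. Seeding was 500 cells/well; IC50 derived by 4-parameter fit relative to vehicle-treated wells.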

BT474 tumor cells = assay: Cell growth inhibition assay (CellTiter-Glo), BT474; type: cell-based, Human; conditions: Homo sapiens, BT-474, 72 h, 3 days incubation
HN5 tumor cells = assay: Cell growth inhibition assay (CellTiter-Glo), HN5; type: cell-based, Human; conditions: Homo sapiens, 72 h; 3 days incubation
Method in brief: as §1

SK-MEL-3 tumor cells = assay: Cell growth inhibition assay (CellTiter-Glo), SK-MEL-3; type: cell-based, Human; conditions: for IC50: Homo sapiens, SK-MEL3
Method in brief: as §1

B-Raf = B-Raf (Homo sapiens, UniProt P15056); assay: B-Raf Accelerated MEK ATPase assay (BRAMA), Method A or B; type: biochemical; conditions: Method B: final MEK 150 nM, single end point read
Method in brief: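 ADP production, initiated by catalytic activated Raf with unphosphorylated MEK, is followed by NADH oxidation through a PK/LDH coupled system. Method B differs from the kinetic Method A by a single end-point read and 150 nM final MEK.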

SK-MEL-28 tumor cells = assay: Cell growth inhibition assay (CellTiter-Glo), SK-MEL-28; type: cell-based, Human; conditions: Homo sapiens, SK-MEL-28, 72 h; 3 days incubation
Method in brief: as §2

Chain of B-Raf (P15056 whole entry): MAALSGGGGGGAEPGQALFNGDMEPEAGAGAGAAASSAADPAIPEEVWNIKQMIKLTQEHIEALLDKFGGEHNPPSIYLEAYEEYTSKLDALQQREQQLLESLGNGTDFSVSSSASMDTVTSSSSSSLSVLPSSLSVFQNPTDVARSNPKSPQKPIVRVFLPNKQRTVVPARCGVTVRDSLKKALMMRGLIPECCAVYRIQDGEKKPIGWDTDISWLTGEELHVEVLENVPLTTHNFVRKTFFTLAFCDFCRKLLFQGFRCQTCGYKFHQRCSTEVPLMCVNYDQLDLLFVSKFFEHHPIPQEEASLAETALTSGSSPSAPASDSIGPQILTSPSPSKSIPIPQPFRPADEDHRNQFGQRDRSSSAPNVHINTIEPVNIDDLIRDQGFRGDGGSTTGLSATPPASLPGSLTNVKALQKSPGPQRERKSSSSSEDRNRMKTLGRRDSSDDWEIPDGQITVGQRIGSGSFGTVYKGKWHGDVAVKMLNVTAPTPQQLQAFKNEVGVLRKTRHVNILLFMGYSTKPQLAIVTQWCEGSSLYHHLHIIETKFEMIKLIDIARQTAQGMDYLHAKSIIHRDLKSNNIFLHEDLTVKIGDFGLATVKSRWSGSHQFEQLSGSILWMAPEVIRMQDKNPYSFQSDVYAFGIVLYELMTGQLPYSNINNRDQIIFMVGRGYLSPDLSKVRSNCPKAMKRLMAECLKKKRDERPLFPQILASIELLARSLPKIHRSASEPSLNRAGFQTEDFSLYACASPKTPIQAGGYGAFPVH

CN(C)c1nc(-c2ccc(F)c(NS(=O)(=O)c3c(F)cccc3F)c2)c(-c2ccnc(Nc3ccc(N4CCOCC4)nc3)n2)s1 [Example 27, N-{5-[2-(Dimethylamino)-5-(2-{[6-(4-morpholinyl)-3-pyridinyl]amino}-4-pyrimidinyl)-1,3-thiazol-4-yl]-2-fluorophenyl}-2,6-difluorobenzenesulfonamide]
IC50 (HT-29 tumor cells): 100 to 1000 nM | IC50 (A375P F11s tumor cells): < 100 nM | IC50 (Colo205 tumor cells): 100 to 1000 nM | IC50 (BT474 tumor cells): > 1000 nM | IC50 (HN5 tumor cells): > 1000 nM | IC50 (SK-MEL-3 tumor cells): < 100 nM | IC50 (B-Raf): < 100 nM | IC50 (SK-MEL-28 tumor cells): 100 to 1000 nM

CC(C)(C)c1nc(-c2ccc(F)c(NS(=O)(=O)c3c(F)cccc3F)c2)c(-c2ccnc(Nc3ccc(N4CCOCC4)nc3)n2)s1 [Example 28, N-{5-[2-(1,1-Dimethylethyl)-5-(2-{[[6-(4-morpholinyl)-3-pyridinyl]amino}-4-pyrimidinyl)-1,3-thiazol-4-yl]-2-fluorophenyl]-2,6-difluorobenzenesulfonamide hydrochloride]
IC50 (HT-29 tumor cells): 100 to 1000 nM | IC50 (A375P F11s tumor cells): < 100 nM | IC50 (Colo205 tumor cells): < 100 nM | IC50 (BT474 tumor cells): > 1000 nM | IC50 (HN5 tumor cells): > 1000 nM | IC50 (SK-MEL-3 tumor cells): < 100 nM | IC50 (B-Raf): < 100 nM | IC50 (SK-MEL-28 tumor cells): < 100 nM

CC(C)c1nc(-c2cccc(NS(=O)(=O)c3c(F)cccc3F)c2F)c(-c2ccnc(Nc3ccc(N4CCN(CCF)CC4)c(F)c3)n2)s1 [Example 29, 2,6-Difluoro-N-{2-fluoro-3-[5-[2-({3-fluoro-4-[4-(2-fluoroethyl)-1-piperazinyl]phenyl}amino)-4-pyrimidinyl]-2-(1-methylethyl)-1,3-thiazol-4-yl]phenyl}benzenesulfonamide]
IC50 (HT-29 tumor cells): 100 to 1000 nM | IC50 (A375P F11s tumor cells): < 100 nM | IC50 (Colo205 tumor cells): < 100 nM | IC50 (BT474 tumor cells): > 1000 nM | IC50 (HN5 tumor cells): 100 to 1000 nM | IC50 (SK-MEL-3 tumor cells): < 100 nM | IC50 (B-Raf): < 100 nM | IC50 (SK-MEL-28 tumor cells): < 100 nM

CC(C)c1nc(-c2cccc(NS(=O)(=O)c3c(F)cccc3F)c2F)c(-c2ccnc(Nc3cnc(N4CCOCC4)c(F)c3)n2)s1 [Example 30, 2,6-Difluoro-N-{2-fluoro-3-[5-(2-{[5-fluoro-6-(4-morpholinyl)-3-pyridinyl]amino}-4-pyrimidinyl)-2-(1-methylethyl)-1,3-thiazol-4-yl]phenyl}benzenesulfonamide]
IC50 (HT-29 tumor cells): 100 to 1000 nM | IC50 (A375P F11s tumor cells): < 100 nM | IC50 (Colo205 tumor cells): < 100 nM | IC50 (BT474 tumor cells): > 1000 nM | IC50 (HN5 tumor cells): < 100 nM | IC50 (SK-MEL-3 tumor cells): < 100 nM | IC50 (B-Raf): < 100 nM | IC50 (SK-MEL-28 tumor cells): < 100 nM

CC(C)c1nc(-c2cc(F)c(F)c(NS(=O)(=O)c3cccc(F)c3)c2)c(-c2ccnc(Nc3cnc(N4CCOCC4)c(F)c3)n2)s1 [Example 31, N-{2,3-Difluoro-5-[5-(2-{[5-fluoro-6-(4-morpholinyl)-3-pyridinyl]amino}-4-pyrimidinyl)-2-(1-methylethyl)-1,3-thiazol-4-yl]phenyl}-3-fluorobenzenesulfonamide]
IC50 (HT-29 tumor cells): < 100 nM | IC50 (A375P F11s tumor cells): 100 to 1000 nM | IC50 (Colo205 tumor cells): 100 to 1000 nM | IC50 (BT474 tumor cells): > 1000 nM | IC50 (HN5 tumor cells): > 1000 nM | IC50 (SK-MEL-3 tumor cells): 100 to 1000 nM | IC50 (B-Raf): < 100 nM | IC50 (SK-MEL-28 tumor cells): 100 to 1000 nM

CC(C)c1nc(-c2ccnc(NS(=O)(=O)c3c(F)cccc3F)c2)c(-c2ccnc(Nc3ccc(N4CCOCC4)nc3)n2)s1 [Example 32, 2,6-Difluoro-N-{4-[2-(1-methylethyl)-5-(2-{[6-(4-morpholinyl}-3-pyridinyl]amino}-4-pyrimidinyl)-1,3-thiazol-4-yl]-2-pyridinyl}benzenesulfonamide]
IC50 (HT-29 tumor cells): > 1000 nM | IC50 (A375P F11s tumor cells): < 100 nM | IC50 (Colo205 tumor cells): < 100 nM | IC50 (BT474 tumor cells): > 1000 nM | IC50 (HN5 tumor cells): > 1000 nM | IC50 (SK-MEL-3 tumor cells): < 100 nM | IC50 (B-Raf): < 100 nM | IC50 (SK-MEL-28 tumor cells): < 100 nM

CC(C)c1nc(-c2ccnc(NS(=O)(=O)c3c(F)cccc3F)c2)c(-c2ccnc(Nc3cnc(N4CCOCC4)c(F)c3)n2)s1 [Example 33]
IC50 (HT-29 tumor cells): 100 to 1000 nM | IC50 (A375P F11s tumor cells): < 100 nM | IC50 (Colo205 tumor cells): < 100 nM | IC50 (BT474 tumor cells): > 1000 nM | IC50 (HN5 tumor cells): > 1000 nM | IC50 (SK-MEL-3 tumor cells): < 100 nM | IC50 (B-Raf): < 100 nM | IC50 (SK-MEL-28 tumor cells): < 100 nM

CCc1nc(-c2cccc(CNS(=O)(=O)c3ccccc3)c2)c(-c2ccnc(Nc3ccc(N4CCOCC4)c(F)c3)n2)s1 [Example 34]
IC50 (HT-29 tumor cells): > 1000 nM | IC50 (A375P F11s tumor cells): 100 to 1000 nM | IC50 (Colo205 tumor cells): 100 to 1000 nM | IC50 (BT474 tumor cells): > 1000 nM | IC50 (HN5 tumor cells): > 1000 nM | Activity in SK-MEL-3 Tumor Cells (SK-MEL-3 tumor cells): + (activity of >1 μM in SK-MEL-3 tumor cells) | IC50 (B-Raf): < 100 nM | IC50 (SK-MEL-28 tumor cells): 100 to 1000 nM

CC(=O)N1CCN(c2ccc(Nc3nccc(-c4sc(C(C)C)nc4-c4cccc(NS(=O)(=O)c5cn(C)cn5)c4)n3)cn2)CC1 [Example 36]
IC50 (HT-29 tumor cells): > 1000 nM | IC50 (A375P F11s tumor cells): 100 to 1000 nM | IC50 (Colo205 tumor cells): 100 to 1000 nM | IC50 (BT474 tumor cells): > 1000 nM | IC50 (HN5 tumor cells): > 1000 nM | IC50 (SK-MEL-3 tumor cells): 100 to 1000 nM | IC50 (B-Raf): < 100 nM | IC50 (SK-MEL-28 tumor cells): 100 to 1000 nM

CC(C)c1nc(-c2cccc(NS(=O)(=O)C3CCCCC3)c2)c(-c2ccnc(Nc3ccc(N4CCOCC4)c(F)c3)n2)s1 [Example 38]
IC50 (HT-29 tumor cells): > 1000 nM | IC50 (A375P F11s tumor cells): 100 to 1000 nM | IC50 (Colo205 tumor cells): 100 to 1000 nM | IC50 (BT474 tumor cells): > 1000 nM | IC50 (HN5 tumor cells): > 1000 nM | Activity in SK-MEL-3 Tumor Cells (SK-MEL-3 tumor cells): + (activity of >1 μM in SK-MEL-3 tumor cells) | IC50 (B-Raf): 100 to 1000 nM | IC50 (SK-MEL-28 tumor cells): 100 to 1000 nM

CC(=O)N1CCN(c2ccc(Nc3nccc(-c4sc(C(C)C)nc4-c4cccc(NS(=O)(=O)C5CCCCC5)c4)n3)cn2)CC1 [Example 39]
IC50 (HT-29 tumor cells): > 1000 nM | IC50 (A375P F11s tumor cells): 100 to 1000 nM | IC50 (Colo205 tumor cells): 100 to 1000 nM | IC50 (BT474 tumor cells): > 1000 nM | IC50 (HN5 tumor cells): > 1000 nM | IC50 (SK-MEL-3 tumor cells): 100 to 1000 nM | IC50 (B-Raf): < 100 nM | IC50 (SK-MEL-28 tumor cells): 100 to 1000 nM
